Like-named read-outs stand apart in the source and are kept apart here.
Legend:
[1] = Pharmacokinetics of the metabolite produced in vivo after administration of 7.5-60 mg Compound A; details: human; for AUC(0-t): read-out: AUC0-24; for concentration at 15 day: read-out: Ctrough
Procedure: In certain embodiments, the pharmacokinetic parameters in connection with the metabolite of Compound A produced via administration of 7.5 mg, 15 mg, 30 mg, 45 mg and 60 mg of Compound A are obtained using the protocol set forth in Section 5.2.1 (paragraphs [00497]-[00520]) of U.S. provisional application No. 61/653,436, filed May 31, 2012, which is incorporated by reference herein in its entirety.
In certain embodiments, the pharmacokinetic parameters set forth herein are mean values obtained from multiple subjects.
In certain embodiments, the metabolite of Compound A is the O-desmethyl metabolite.

[2] = Phase 1 food effect study (Part 2), single 20-mg oral dose of Compound A tablet, fed vs fasted; format: in vivo, human; details: for CL/F / AUC(0-inf) / Cmax / half-life / AUC(0-t) / Vd/F: geometric mean; for Tmax / AUC(0-inf) / Cmax / half-life / AUC(0-t) / Vd/F: male, human, plasma, 20 mg; for AUC(0-t): read-out: AUC0-24; for Vd/F: read-out: Vz/F
Procedure: The primary objectives of this study are: to characterize the biotransformation and excretion of Compound A following a single 20 mg oral dose of Compound A capsule containing a microtracer of [^14C]-Compound A solution in healthy male subjects (Part 1) and to evaluate the effect of a high-fat meal on the pharmacokinetics (PK) of Compound A following a single oral 20-mg dose of Compound A tablet (Part 2).
Part 2 design: Part 2 will be a 2-period crossover study; in Period 1, subjects (n=12) will be randomized to receive either an oral 20 mg dose of Compound A tablet (Treatment B) under fed (n=6) or fasted (n=6) conditions. In Period 2, subjects will receive Treatment B under converse conditions based on treatment assignment in Period 1. After screening, subjects (n=12) eligible for participation in the study will return to the study center on Day −1 for baseline assessments. Subjects who continue to be qualified for participation in the study will be randomized and enrolled in the study on the morning of Day 1. Subjects (n=6) will be enrolled and randomized to receive Treatment B under fed or fasted conditions on the morning of Day 1 after fasting for at least 8 hours. Fed subjects will be served a standard high fat meal breakfast, or its equivalent, that must be consumed within 30 minutes from serving. Dosing must occur 30 minutes (+5 minutes) after serving a subject breakfast. All subjects (fed and fasted) will fast (not to consume any food) until 4 hours post dose. Water will be allowed during the fasting period. Subjects will be domiciled at the study center from Day −1 until the morning of Day 5 of each period. Subjects will be discharged from the study center on the morning of Day 5 upon satisfactory safety review and completion of study-related procedures. Safety and tolerability data will be monitored and collected following each dosing period. Periods 1 and 2 will be separated by a washout period of at least 7 days (no more than 10 days) from prior dose to the next dose. In certain instances, a longer washout may be acceptable if previously agreed to.
Serial blood samples (10 mL) will be collected at predose (0 hour) and at 0.5, 1, 2, 3, 6, 12, 24, 48, 72 and 96 hours post dose for the determination of plasma concentrations of Compound A and the O-desmethyl metabolite of Compound A. Safety will be monitored throughout the study; safety evaluations will include AE reporting, physical examinations, vital sign measurements, ECG, and clinical laboratory safety tests. Concomitant medications will be assessed and recorded throughout the study as well. In addition, during the subjects' stay-in-the clinic (i.e., confinement period), fasting plasma glucose levels will be monitored as part of the clinical laboratory safety tests. For Parts 1 and 2, all subjects will return to the clinic within 7 to days after the last dose for follow up safety assessments. In the event that a subject discontinues prematurely from the study, every reasonable effort should be made (and documented) to ensure that all procedures and evaluations scheduled for the follow-up visit are performed at the time of discontinuation or a follow-up visit should be scheduled within 7 to days from the discontinuation day.
Part 2 dosing: In Part 2, subjects will fast overnight for at least 8 hours prior to Compound A administration. On the morning of Day 1, each subject will receive a 20-mg tablet of Compound A orally. Subjects randomized to receive Compound A under fed conditions will be a served a standard high fat meal (breakfast).
The standard high fat meal or its equivalent must be consumed within minutes of serving. Dosing must occur 30 minutes (+5 minutes) after serving the meal. The tablet will be administered with approximately 240 mL of non-carbonated, room temperature water. After dosing, subjects will continue to fast until 4 hours after dosing.

[3] = 7.5 mg, day 1 of administration of about 7.5 mg of Compound A
[4] = 7.5 mg, on day (number not given) of once a day administration of about 7.5 mg of Compound A
[5] = 15 mg, day 1 of administration of about 15 mg of Compound A
[6] = 15 mg, on day (number not given) of once a day administration of about 15 mg of Compound A
[7] = 30 mg, day 1 of administration of about 30 mg of Compound A
[8] = 30 mg, day 15 of once a day administration of about 30 mg of Compound A
[9] = 45 mg, day 1 of administration of about 45 mg of Compound A
[10] = 45 mg, day 15 of once a day administration of about 45 mg of Compound A
[11] = 60 mg, day 1 of administration of about 60 mg of Compound A
[12] = 60 mg, day 15 of once a day administration of about 60 mg of Compound A
[13] = fed vs fasted, healthy adult males, 20 mg Compound A
[14] = po, Fasted (n = 11), single 20-mg oral dose of Compound A tablet
[15] = po, Fed (n = 11, high fat meal), single 20-mg oral dose of Compound A tablet

AUC(0-inf) [1, 3]: 7950 ng·h/mL
Cmax [1, 3]: 143 ng/mL
Tmax [1, 3]: 8 h
half-life [1, 3]: 35 h
AUC(0-t) [1, 3]: 2740 ng·h/mL
AUC(0-inf) [1, 4]: 45600 ng·h/mL
Cmax [1, 4]: 363 ng/mL
Tmax [1, 4]: 2 h
AUC(0-t) [1, 4]: 6400 ng·h/mL
AUC(0-inf) [1, 5]: 5820 ng·h/mL
Cmax [1, 5]: 309 ng/mL
Tmax [1, 5]: 2 h
half-life [1, 5]: 12 h
AUC(0-t) [1, 5]: 3830 ng·h/mL
AUC(0-inf) [1, 6]: 9750 ng·h/mL
Cmax [1, 6]: 458 ng/mL
Tmax [1, 6]: 3 h
AUC(0-t) [1, 6]: 5680 ng·h/mL
AUC(0-inf) [1, 7]: 27700 ng·h/mL
Cmax [1, 7]: 776 ng/mL
Tmax [1, 7]: 7 h
half-life [1, 7]: 21 h
AUC(0-t) [1, 7]: 13300 ng·h/mL
AUC(0-inf) [1, 8]: 118000 ng·h/mL
Cmax [1, 8]: 1770 ng/mL
Tmax [1, 8]: 2 h
AUC(0-t) [1, 8]: 29400 ng·h/mL
AUC(0-inf) [1, 9]: 27300 ng·h/mL
Cmax [1, 9]: 1150 ng/mL
Tmax [1, 9]: 3 h
half-life [1, 9]: 17 h
AUC(0-t) [1, 9]: 15900 ng·h/mL
AUC(0-inf) [1, 10]: 77700 ng·h/mL
Cmax [1, 10]: 2240 ng/mL
Tmax [1, 10]: 2 h
AUC(0-t) [1, 10]: 32700 ng·h/mL
AUC(0-inf) [1, 11]: 37500 ng·h/mL
Cmax [1, 11]: 1440 ng/mL
Tmax [1, 11]: 4 to 6 h
half-life [1, 11]: 16 h
AUC(0-t) [1, 11]: 21500 ng·h/mL
AUC(0-inf) [1, 12]: 138000 ng·h/mL
Cmax [1, 12]: 2520 ng/mL
Tmax [1, 12]: 3 h
AUC(0-t) [1, 12]: 46900 ng·h/mL
concentration at 15 day ([1]; day 15 of once a day administration of about 30 mg of Compound A): 1100 ng/mL
concentration at 15 day ([1]; day 15 of once a day administration of about 45 mg of Compound A): 1180 ng/mL
concentration at 15 day ([1]; day 15 of once a day administration of about 60 mg of Compound A): 1470 ng/mL
CL/F ([2]; Fasted (n = 11), single 20-mg oral dose of Compound A tablet): 2.0 L/h
CL/F ([2]; Fed (n = 11, high fat meal), single 20-mg oral dose of Compound A tablet): 2.0 L/h
decrease in Cmax with a high fat meal [2, 13]: ~17%
increase in overall exposure (AUCinf) with a high fat meal [2, 13]: ~3%
Tmax ([2]; oral, fed vs fasted, healthy adult males, 20 mg Compound A, read-out: delay in Tmax with a high fat meal): 3 h
Tmax ([2]; po, Fasted (n = 11), single 20-mg oral dose of Compound A tablet, healthy adult males, median, read-out: Tmax): 3 h
AUC(0-inf) [2, 14]: 9830 ng·h/mL
Cmax [2, 14]: 425 ng/mL
half-life [2, 14]: 14.8 h
AUC(0-t) [2, 14]: 6400 ng·h/mL
Vd/F [2, 14]: 34.7 L
AUC(0-inf) [2, 15]: 10100 ng·h/mL
Cmax [2, 15]: 364 ng/mL
half-life [2, 15]: 14.9 h
AUC(0-t) [2, 15]: 6270 ng·h/mL
Vd/F [2, 15]: 42.6 L
Tmax ([2]; po, Fed (n = 11, high fat meal), single 20-mg oral dose of Compound A tablet, median, read-out: Tmax): 6 h
SMILES: CC(C)(O)c1ccc(-c2cnc3c(n2)N([C@H]2CC[C@H](O)CC2)C(=O)CN3)cn1 [O-Desmethyl metabolite, 1-((1r,4r)-4-hydroxycyclohexyl)-7-(6-(2-hydroxypropan-2-yl)pyridin-3-yl)-3,4-dihydropyrazino[2,3-b]pyrazin-2(1H)-one]

Source: US9403829B2, “Pharmaceutical compositions of 7-(6-(2-hydroxypropan-2-yl)pyridin-3-yl)-1-((trans)-4-methoxycyclohexyl)-3,4-dihydropyrazino [2,3-b]pyrazin-2(1H)-one, a solid form thereof and methods of their use” (Signal Pharmaceuticals, LLC, priority 2011, dated 2016)
